Patent publication US6875438B2, “Preparations for topical administration of substances having antiandrogenic activity” (Aventis Pharma Deutschland GmbH, priority 2002, dated 2005)

How the values were obtained:
[1] = tested on: cells of the dermal papilla of occipital scalp; assay: Hydrolysis of compound 2 to compound 1 in cultivated dermal papilla cells (HPLC of media extracts); format: in vitro ADME, human; details: skin cells, in particular cells of the dermal papilla
Procedure: Monolayer cultures of juvenile prepuce keratinocytes and fibroblasts and of cells of the dermal papilla of occipital scalp were incubated with compound 2 in a concentration of 10^−5 M under standard conditions (5% CO2, 37° C.) for 24 h. The cell culture medium was then extracted with chloroform. The organic phase was evaporated and the residue was taken up in acetonitrile and investigated by HPLC analysis for its content of compounds 1 and 2.

[2] = Microscopic investigations for crystallization of active ingredient in the preparation; format: physicochemical; details: lipid nanoparticle preparations

For CCCCCCCCCCCCCC(=O)OCCCCN1C(=O)N(c2ccc(C#N)c(C(F)(F)F)c2)C(=O)C1(C)C [compound 2], the “Conversion of compound 2 into compound 1 (in words)” value [1] was “significant conversion” and the “Crystallization of compound 2 in the preparation (microscopy)” value [2] was “no indications of crystallization”.
